Data as given in patent US20020111274A1, “1-alkyl-3-[1-(substituted phenyl) benzotriazol-6-yl] uracils” (BASF Aktiengesellschaft, priority 2000, published 2002).

What was measured:
Parameters in all cases: scale not given here
[1] = tested on: TRZAWR Wheat, Winter, cv Riband; assay: Postemergence herbicidal evaluation, TRZAWR; assay type: in vivo, Triticum aestivum; details: postemergence spray, rated about two-three weeks after treatment
Method: (§1) In this evaluation, seedling plants are grown in jiffy flats for about two weeks. The test compounds are dispersed in 80/20 acetone/water mixtures containing 1.0% SUN-IT® II, a methylated seed oil, in sufficient quantities to provide the equivalent of about 0.006 kg to 0.400 kg per hectare of active compound when applied to the plants through a spray nozzle operating at 40 psi for a predetermined time. After spraying, the plants are placed on greenhouse benches and are cared for in accordance with conventional greenhouse procedures. Approximately two - three weeks after treatment, the seedling plants are examined and rated according to the rating system set forth below. Where more than one test is involved for a given compound, the data are averaged.

SETVI Foxtail, Green [2] = assay: Preemergence herbicidal evaluation, SETVI; assay type: in vivo, Setaria viridis, (L.) Beau; details: preemergence
Text: (§2) The preemergence herbicidal activity of the test compounds of the present invention is exemplified by the following tests in which the seeds of a variety of monocotyledonous and dicotyledonous plants are separately mixed with potting soil and planted on top of approximately one inch of soil in separate pint cups. […] The treated cups are then placed on greenhouse benches, watered and cared for in accordance with conventional greenhouse procedures. From four to five weeks after treatment, the tests are terminated and each cup is examined and rated according to the rating system provided in Example 46.

ZEAMX Corn, Field = assay: Postemergence herbicidal evaluation, ZEAMX; assay type: in vivo, Zea mays, L. (Sammel-Bezeichnung); details: postemergence spray, rated about two-three weeks after treatment
Method: as §1

GLXMAW Soybean, Williams [3] = assay: Preemergence herbicidal evaluation, GLXMAW; assay type: in vivo, Glycine max, (L.) Merr. cv Williams; details: preemergence
Text: as §2

SETVI Foxtail, Green [4] = assay: Postemergence herbicidal evaluation, SETVI; assay type: in vivo, Setaria viridis, (L.) Beau; details: postemergence spray, rated about two-three weeks after treatment
Method: as §1

GLXMAW Soybean, Williams [5] = assay: Postemergence herbicidal evaluation, GLXMAW; assay type: in vivo, Glycine max, (L.) Merr. cv Williams; details: postemergence spray, rated about two-three weeks after treatment
Method: as §1

GALAP Galium = assay: Preemergence herbicidal evaluation, GALAP; assay type: in vivo, Galium aparine; details: preemergence
Text: as §2

CASOB Sicklepod = assay: Postemergence herbicidal evaluation, CASOB; assay type: in vivo, Cassia obtusifolia, L.; details: postemergence spray, rated about two-three weeks after treatment
Method: as §1

ECHOG Barnyardgrass = assay: Postemergence herbicidal evaluation, ECHOG; assay type: in vivo, Echinochloa crus-galli, (L.) Beau; details: postemergence spray, rated about two-three weeks after treatment
Method: as §1

ABUTH Velvetleaf [6] = assay: Preemergence herbicidal evaluation, ABUTH; assay type: in vivo, Abutilon theophrasti, Medic.; details: preemergence
Text: as §2

ABUTH Velvetleaf [7] = assay: Postemergence herbicidal evaluation, ABUTH; assay type: in vivo, Abutilon theophrasti, Medic.; details: postemergence spray, rated about two-three weeks after treatment
Method: as §1

ORYSAT Rice, Tebonnet = assay: Preemergence herbicidal evaluation, ORYSAT; assay type: in vivo, Oryza sativa, (L.); details: preemergence
Text: as §2

## Cc1ccc(-n2nnc3cc(F)c(-n4c(=O)cc(C(F)(F)F)n(C)c4=O)cc32)cc1 [Example 19]
[1]; 0.008 kg/ha
  Postemergence herbicidal rating TRZAWR: 2.5
[1]; 0.016 kg/ha
  Postemergence herbicidal rating TRZAWR: 3.5
[1]; 0.032 kg/ha
  Postemergence herbicidal rating TRZAWR: 4.0
[1]; 0.062 kg/ha
  Postemergence herbicidal rating TRZAWR: 4.5
SETVI Foxtail, Green [2]; rate 0.016 kg/ha
  SETVI herbicidal rating: 4.5
SETVI Foxtail, Green [2]; rate 0.032 kg/ha
  SETVI herbicidal rating: 7.0
SETVI Foxtail, Green [2]; rate 0.062 kg/ha
  SETVI herbicidal rating: 9.0
SETVI Foxtail, Green [2]; rate 0.125 kg/ha
  SETVI herbicidal rating: 9.0
ZEAMX Corn, Field; 0.008 kg/ha
  Postemergence herbicidal rating ZEAMX: 4.5
ZEAMX Corn, Field; 0.016 kg/ha
  Postemergence herbicidal rating ZEAMX: 4.5
ZEAMX Corn, Field; 0.032 kg/ha
  Postemergence herbicidal rating ZEAMX: 5.0
ZEAMX Corn, Field; 0.062 kg/ha
  Postemergence herbicidal rating ZEAMX: 5.5
GLXMAW Soybean, Williams [3]; rate 0.016 kg/ha
  GLXMAW herbicidal rating: 0.5
GLXMAW Soybean, Williams [3]; rate 0.032 kg/ha
  GLXMAW herbicidal rating: 1.5
GLXMAW Soybean, Williams [3]; rate 0.062 kg/ha
  GLXMAW herbicidal rating: 2.5
GLXMAW Soybean, Williams [3]; rate 0.125 kg/ha
  GLXMAW herbicidal rating: 4.0
SETVI Foxtail, Green [4]; 0.008 kg/ha
  Postemergence herbicidal rating SETVI: 0.0
SETVI Foxtail, Green [4]; 0.016 kg/ha
  Postemergence herbicidal rating SETVI: 0.0
SETVI Foxtail, Green [4]; 0.032 kg/ha
  Postemergence herbicidal rating SETVI: 0.0
SETVI Foxtail, Green [4]; 0.062 kg/ha
  Postemergence herbicidal rating SETVI: 3.0
GLXMAW Soybean, Williams [5]; 0.008 kg/ha
  Postemergence herbicidal rating GLXMAW: 4.5
GLXMAW Soybean, Williams [5]; 0.016 kg/ha
  Postemergence herbicidal rating GLXMAW: 5.5
GLXMAW Soybean, Williams [5]; 0.032 kg/ha
  Postemergence herbicidal rating GLXMAW: 6.5
GLXMAW Soybean, Williams [5]; 0.062 kg/ha
  Postemergence herbicidal rating GLXMAW: 7.5
GALAP Galium; rate 0.016 kg/ha
  GALAP herbicidal rating: 0.0
GALAP Galium; rate 0.032 kg/ha
  GALAP herbicidal rating: 0.0
GALAP Galium; rate 0.062 kg/ha
  GALAP herbicidal rating: 0.0
GALAP Galium; rate 0.125 kg/ha
  GALAP herbicidal rating: 9.0
CASOB Sicklepod; 0.008 kg/ha
  Postemergence herbicidal rating CASOB: 0.0
CASOB Sicklepod; 0.016 kg/ha
  Postemergence herbicidal rating CASOB: 0.0
CASOB Sicklepod; 0.032 kg/ha
  Postemergence herbicidal rating CASOB: 2.0
CASOB Sicklepod; 0.062 kg/ha
  Postemergence herbicidal rating CASOB: 2.0
ECHOG Barnyardgrass; 0.008 kg/ha
  Postemergence herbicidal rating ECHCG: 0.0
ECHOG Barnyardgrass; 0.016 kg/ha
  Postemergence herbicidal rating ECHCG: 0.0
ECHOG Barnyardgrass; 0.032 kg/ha
  Postemergence herbicidal rating ECHCG: 0.0
ECHOG Barnyardgrass; 0.062 kg/ha
  Postemergence herbicidal rating ECHCG: 0.0
ABUTH Velvetleaf [6]; rate 0.016 kg/ha
  ABUTH herbicidal rating: 1.0
ABUTH Velvetleaf [6]; rate 0.032 kg/ha
  ABUTH herbicidal rating: 6.5
ABUTH Velvetleaf [6]; rate 0.062 kg/ha
  ABUTH herbicidal rating: 9.0
ABUTH Velvetleaf [6]; rate 0.125 kg/ha
  ABUTH herbicidal rating: 9.0
ABUTH Velvetleaf [7]; 0.008 kg/ha
  Postemergence herbicidal rating ABUTH: 9.0
ABUTH Velvetleaf [7]; 0.016 kg/ha
  Postemergence herbicidal rating ABUTH: 9.0
ABUTH Velvetleaf [7]; 0.032 kg/ha
  Postemergence herbicidal rating ABUTH: 9.0
ABUTH Velvetleaf [7]; 0.062 kg/ha
  Postemergence herbicidal rating ABUTH: 9.0
ORYSAT Rice, Tebonnet; rate 0.016 kg/ha
  ORYSAT herbicidal rating: 0.0
ORYSAT Rice, Tebonnet; rate 0.032 kg/ha
  ORYSAT herbicidal rating: 0.5
ORYSAT Rice, Tebonnet; rate 0.062 kg/ha
  ORYSAT herbicidal rating: 1.5
ORYSAT Rice, Tebonnet; rate 0.125 kg/ha
  ORYSAT herbicidal rating: 2.0
